Like-named read-outs stand apart in the source and are kept apart here.
How the values were obtained:
Assay in all cases: sensitivity of SCLC cell line, procedure of Oltersdorf
Type in all cases: cell-based
NCI-H740 = conditions: Homo sapiens, read-out: sensitivity class by EC50
Protocol: (§1) The following SCLC cell lines were obtained from ATCC (Manassis, Va.): NCI-H889, NCI-H1963, NCI-H1417, NCI-H146, NCI-H187, DMS53, NCI-H510, NCI-H209, NCI-H211, NCI-H345, NCI-H524, NCI-H69, DMS79, SHP77, NCI-H1688, NCI-H446, NCI-H740, NCI-H1048, NCI-H82, NCI-H196, SW1271, H69AR, NCI-H526, NCI-H865, NCI-H748, NCI-H711, and DMS114. All cells were cultured in the ATCC recommended media at 37° C. in a humidified atmosphere containing 5% CO2. The following leukemia and lymphoma cell lines were obtained from ATCC (Manassis, Va.): MV-4-11, RS4;11, Loucy, KG-1A, DOHH2, Rs11380, CCRF-HSB-2, CCRF-CEM, CEM/C1, Reh, SUP-B15, MOLT-4, SUDHL4, HL-60, RPMI 8226, A3, Daudi, WSU-NHL, Pfeiffer, Jurkat I 9.2, Jurkat, MEG-01, U-937, K-562, and Raji.
(§2) The 27 SCLC cell lines were tested for sensitivity to ABT-737 using the procedure described in Oltersdorf, T., “An inhibitor of Bcl-2 family proteins induces regression of solid tumours”, Nature, 435: 677-681, 2005, with a cell line classified as sensitive if its EC50<5 μM and as resistant if its EC50>5 µM. The sensitive cell line group consisted of NCI-H889, NCI-H1963, NCI-H1417, NCI-H146, DMS 53, NCI-H187, NCI-H510, NCI-H209, NCI-H345, NCI-H526, NCI-H211, NCI-H865, NCI-H524, NCI-H748, DMS 79, NCI-H69, NCI-H711, SHP 77, NCI-H1688, and the resistant cell line group was comprised of NCI-H446, NCI-H740, NCI-H1048, NCI-H82, NCI-H196, SW1271, DMS 114, and NCI-H69AR.
(§3) The 22 SCLC cell lines were tested for sensitivity to ABT-263 using the procedure described in Oltersdorf, T., “An inhibitor of Bcl-2 family proteins induces regression of solid tumours”, Nature, 435: 677-681, 2005, with a cell line classified as sensitive if its EC50<5 µM and as resistant if its EC50>5 μM. The sensitive cell line group consisted of NCI-H146, NCI-H889, NCI-H1963, NCI-H187, NCI-H1417, NCI-H211, NCI-H69, NCI-H209, NCI-H510, DMS 53, DMS 79, NCI-H345, NCI-H1048, SHP 77, NCI-H446 and the resistant cell line group was comprised of NCI-H1688, NCI-H740, NCI-H82, NCI-H69AR, SW1271, DMS 114 and NCI-H 196.

NCI-H69 = conditions: Homo sapiens, read-out: sensitivity class by EC50
Protocol: as §1, §2, §3

NCI-H1963 = conditions: Homo sapiens, read-out: sensitivity class by EC50
Protocol: as §1, §2, §3

NCI-H510 = conditions: Homo sapiens, read-out: sensitivity class by EC50
Protocol: as §1, §2, §3

NCI-H889 = conditions: Homo sapiens, read-out: sensitivity class by EC50
Protocol: as §1, §2, §3

NCI-H187 = conditions: Homo sapiens, read-out: sensitivity class by EC50
Protocol: as §1, §2, §3

SW1271 = conditions: Homo sapiens, read-out: sensitivity class by EC50
Protocol: as §1, §2, §3

DMS 79 = conditions: Homo sapiens, read-out: sensitivity class by EC50
Protocol: as §1, §2, §3

NCI-H69AR = conditions: Homo sapiens, read-out: sensitivity class by EC50
Protocol: as §1, §2, §3

NCI-H82 = conditions: Homo sapiens, read-out: sensitivity class by EC50
Protocol: as §1, §2, §3

DMS 114 = conditions: Homo sapiens, read-out: sensitivity class by EC50
Protocol: as §1, §2, §3

NCI-H209 = conditions: Homo sapiens, read-out: sensitivity class by EC50
Protocol: as §1, §2, §3

SHP 77 = conditions: Homo sapiens, SHP77, read-out: sensitivity class by EC50
Protocol: as §1, §2, §3

NCI-H1048 = conditions: Homo sapiens, read-out: sensitivity class by EC50
Protocol: as §1, §2, §3

NCI-H345 = conditions: Homo sapiens, read-out: sensitivity class by EC50
Protocol: as §1, §2, §3

NCI-H1688 = conditions: Homo sapiens, read-out: sensitivity class by EC50
Protocol: as §1, §2, §3

DMS 53 = conditions: Homo sapiens, read-out: sensitivity class by EC50
Protocol: as §1, §2, §3

NCI-H1417 = conditions: Homo sapiens, read-out: sensitivity class by EC50
Protocol: as §1, §2, §3

NCI-H196 = conditions: Homo sapiens
Protocol: as §1, §2, §3

NCI-H211 = conditions: Homo sapiens, read-out: sensitivity class by EC50
Protocol: as §1, §2, §3

NCI-H446 = conditions: Homo sapiens, read-out: sensitivity class by EC50
Protocol: as §1, §2, §3

NCI-H146 = conditions: Homo sapiens, read-out: sensitivity class by EC50
Protocol: as §1, §2, §3

`CC1(C)CCC(c2ccc(Cl)cc2)=C(CN2CCN(c3ccc(C(=O)NS(=O)(=O)c4ccc(N[C@H](CCN5CCOCC5)CSc5ccccc5)c(S(=O)(=O)C(F)(F)F)c4)cc3)CC2)C1` [ABT-263, N-(4-(4-((2-(4-chlorophenyl)-5,5-dimethyl-1-cyclohex-1-en-1-yl)methyl)piperazin-1-yl)benzoyl)-4-(((1R)-3-(morpholin-4-yl)-1-((phenylsulfanyl)methyl)propyl)amino)-3-((trifluoromethyl)sulfonyl)benzenesulfonamide] gave an EC50 (NCI-H740) of over 5 µM, an EC50 (NCI-H69) of under 5 µM and an EC50 (NCI-H1963) of under 5 µM. The EC50 (NCI-H510) was under 5 µM, the EC50 (NCI-H889) was under 5 µM and the EC50 (NCI-H187) was under 5 µM. It also gave an EC50 (SW1271) of over 5 µM, an EC50 (DMS 79) of under 5 µM and an EC50 (NCI-H69AR) of over 5 µM. For the same molecule, the EC50 (NCI-H82) was over 5 µM, the EC50 (DMS 114) was over 5 µM and the EC50 (NCI-H209) was under 5 µM. It also gave an EC50 (SHP 77) of under 5 µM, an EC50 (NCI-H1048) of under 5 µM and an EC50 (NCI-H345) of under 5 µM. It also gave an EC50 (NCI-H1688) of over 5 µM, an EC50 (DMS 53) of under 5 µM and an EC50 (NCI-H1417) of under 5 µM. The EC50 (NCI-H196; NCI-H 196, read-out: sensitivity class by EC50) was over 5 µM, the EC50 (NCI-H211) was under 5 µM and the EC50 (NCI-H446) was under 5 µM. The EC50 (NCI-H146) was under 5 µM.
For `CN(C)CC[C@H](CSc1ccccc1)Nc1ccc(S(=O)(=O)NC(=O)c2ccc(N3CCN(Cc4ccccc4-c4ccc(Cl)cc4)CC3)cc2)cc1[N+](=O)[O-]` [ABT-737, N-(4-(4-((4′-chloro(1,1′-biphenyl)-2-yl)methyl)piperazin-1-yl)benzoyl)-4-(((1R)-3-(dimethylamino)-1-((phenylsulfanyl)methyl)propyl)amino)-3-nitrobenzenesulfonamide], the EC50 (NCI-H740) was over 5 µM, the EC50 (NCI-H69) was under 5 µM and the EC50 (NCI-H1963) was under 5 µM. For the same molecule, the EC50 (NCI-H510) was under 5 µM, the EC50 (NCI-H889) was under 5 µM and the EC50 (NCI-H187) was under 5 µM. The EC50 (SW1271) was over 5 µM, the EC50 (DMS 79) was under 5 µM and the EC50 (NCI-H69AR) was over 5 µM. It also gave an EC50 (NCI-H82) of over 5 µM, an EC50 (DMS 114) of over 5 µM and an EC50 (NCI-H209) of under 5 µM. It also gave an EC50 (SHP 77) of under 5 µM, an EC50 (NCI-H1048) of over 5 µM and an EC50 (NCI-H345) of under 5 µM. It also gave an EC50 (NCI-H1688) of under 5 µM, an EC50 (DMS 53) of under 5 µM and an EC50 (NCI-H1417) of under 5 µM. The EC50 (NCI-H196; read-out: sensitivity class by EC50) was over 5 µM, the EC50 (NCI-H211) was under 5 µM and the EC50 (NCI-H446) was over 5 µM. For the same molecule, the EC50 (NCI-H146) was under 5 µM.

Source: patent US20100028889A1, “COMPANION DIAGNOSTIC ASSAYS FOR CANCER THERAPY” (ABBOTT LABORATORIES, priority 2006, published 2010)
